# Columns and labels:
# [1] = molecular target: T1, human topoisomerase I (topo70) in covalent complex with duplex 22 mer DNA (Homo sapiens, UniProt P11387); experiment: X-ray crystal structure of ternary topo70-DNA-compound complex; assay type: binding
# T1 construct: residues 175 to 765 of the natural protein plus an N-terminal initiating methionine; initiating methionine (one added Met before residue 175) (N); made in house; host or cells: insect cells (recombinant baculovirus, pFastBac-topo70 wt)
# T1 sequence (P11387 175-765): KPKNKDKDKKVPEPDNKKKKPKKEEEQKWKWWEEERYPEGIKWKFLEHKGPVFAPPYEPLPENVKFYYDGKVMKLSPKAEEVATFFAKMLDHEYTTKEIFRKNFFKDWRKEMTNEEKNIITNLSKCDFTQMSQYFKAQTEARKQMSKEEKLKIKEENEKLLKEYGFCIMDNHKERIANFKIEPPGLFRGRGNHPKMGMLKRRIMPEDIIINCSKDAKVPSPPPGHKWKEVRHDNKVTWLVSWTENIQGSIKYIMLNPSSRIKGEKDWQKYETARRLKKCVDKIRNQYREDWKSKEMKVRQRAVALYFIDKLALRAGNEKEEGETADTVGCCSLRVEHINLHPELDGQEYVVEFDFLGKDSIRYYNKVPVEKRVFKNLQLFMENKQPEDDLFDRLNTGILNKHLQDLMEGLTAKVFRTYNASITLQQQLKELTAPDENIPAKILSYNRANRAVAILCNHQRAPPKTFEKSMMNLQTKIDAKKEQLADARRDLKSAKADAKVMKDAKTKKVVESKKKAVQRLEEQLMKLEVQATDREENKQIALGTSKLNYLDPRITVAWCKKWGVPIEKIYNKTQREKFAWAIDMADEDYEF
# [2] = system: Topo I; conditions: Hsiang et al., Cancer Res 1989; cited from earlier work
# [3] = Giovanella et al., Science 1989; cited from earlier work
# [4] = molecular target: T2, reconstituted "linker-less" human Topo I (Homo sapiens, UniProt P11387); conditions: Stewart et al., J. Biol. Chem. 1999; cited from earlier work
# T2 sequence (P11387 175-659 limits assumed): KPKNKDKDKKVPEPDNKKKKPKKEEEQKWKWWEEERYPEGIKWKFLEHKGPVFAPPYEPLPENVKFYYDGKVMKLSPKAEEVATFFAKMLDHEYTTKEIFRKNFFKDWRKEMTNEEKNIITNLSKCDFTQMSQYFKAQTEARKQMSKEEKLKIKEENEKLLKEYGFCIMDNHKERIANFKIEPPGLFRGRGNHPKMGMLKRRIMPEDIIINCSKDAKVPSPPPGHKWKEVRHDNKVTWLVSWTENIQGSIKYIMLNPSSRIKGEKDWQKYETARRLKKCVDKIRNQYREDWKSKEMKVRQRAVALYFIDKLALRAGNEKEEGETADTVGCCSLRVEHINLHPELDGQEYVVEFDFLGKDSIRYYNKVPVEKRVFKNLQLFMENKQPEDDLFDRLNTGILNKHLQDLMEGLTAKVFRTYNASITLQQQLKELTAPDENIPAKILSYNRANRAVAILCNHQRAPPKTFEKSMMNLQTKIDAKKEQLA
# T2 sequence (P11387 713-765 limits assumed): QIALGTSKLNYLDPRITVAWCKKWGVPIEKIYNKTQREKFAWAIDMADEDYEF
# [5] = unrestrained full matrix refinement of occupancy factors, standard uncertainty 7%
compound,measurement,setting,value
CCOc1ccc(-c2nc3ccc(-c4nc5ccc(N6CCN(C)CC6)cc5[nH]4)cc3[nH]2)cc1 [Hoecsht-33342],binding site relative to camptothecin,[1]; Form 11 structure,do not bind at the same site as camptothecin
CC[C@@](O)(C(=O)[O-])c1cc2n(c(=O)c1CO)Cc1cc3ccccc3nc1-2.[Na+] [sodium carboxylate form of camptothecin],Topo I inhibitory activity in vitro,[2],does have Topo I inhibitory activity in vitro
same,activity in in vivo cell killing assays,[3],does have
CC[C@@]1(O)C(=O)OCc2c1cc1n(c2=O)Cc2cc3c(CN(C)C)c(O)ccc3nc2-1 [topotecan],relaxation-inhibition effect on linker-less Topo I,[4],resistant to the relaxation-inhibition effect
same,binding mode in the crystal structure,"[1]; Form 9-TTC, Form 9-AG260, Form 10 structures",intercalate at the site of DNA cleavage
same,occupancy of closed lactone form in the bound complex,[1]; [5],63%
same,occupancy of open carboxylate form in the bound complex,[1]; [5],37%
